# According to patent US8343539B2, “Compounds that bind α5β1 integrin and methods of use” (Regents of the University of Minnesota, priority 2006, dated 2013):
# Entries after “also recorded” stand apart in the source; their conditions may differ. Where no end group is shown, it is not given here. (C16)2 = not defined here
# Assays:
# HUVECs [1] = assay: HUVEC adhesion on LB membranes of peptide-amphiphiles (Example 1); type: cell-based, human; details: no serum; for HUVEC adhesion compared to FN: seeded 497 cells/mm^2
# Description: Surface preparation: Peptide-amphiphiles, listed in Table 1, were synthesized as described in the literature (Berndt et al., J. Am. Chem. Soc., 1995; 117:9515-9522). Langmuir-Blodgett (LB) membranes constructed from peptide-amphiphiles were deposited onto 15 mm mica disks as described elsewhere (Kokkoli et al., Langmuir, 2004; 20:2397-2404). Shortly before cell assays, the LB films were transferred into 24-well plates containing 1× phosphate buffered saline (PBS) solution (Mediatech), without exposing surfaces to air, as they rearrange to form multilayers (Hansma et al., Method. Cell Biol., 2002; 69:163-193). After equilibrating for 5-10 minutes, PBS was exchanged with 1 ml of MCDB-131 basal media (Sigma) supplemented with 0.1% bovine serum albumin (BSA) (Sigma) and antibiotics (Sigma) (2.5 μg/ml gentamicin, 2.5 μg/ml amphotericin B, 50 U/ml penicillin, and 50 μg/ml streptomycin), referred to as 0.1% BSA media. Surfaces were equilibrated at 37° C., 5% CO2 for 30-60 minutes before adding the cells. Human fibronectin-coated round coverslips (FN) 22 mm in diameter (BD Biosciences) were put into 12-well plates and 2 ml of 0.1% BSA media was added to each well. Surfaces were equilibrated for 30-60 minutes at 37° C., 5% CO2.
# Cell culture: Human umbilical vein endothelial cells, HUVECs, (Cambrex Corporation) were cultured in MCDB-131 containing 20% fetal bovine serum (FBS) (Atlas Biologicals) at 37° C., 5% CO2. Other nutrients and antibiotics supplementing the media were added based on an optimal HUVEC proliferation study (Terramani et al., In Vitro Cell Dev. Biol.—Animal, 2000; 36:125-132). Media was changed in the culture flasks every other day. Cells used for adhesion and imaging studies were in passages 3-4.
# Cell adhesion experiments: After cells became 90% confluent they were washed with PBS, trypsinized with 0.25% Trypsin-EDTA (Cambrex Corporation), neutralized with MCDB-131 with 2% FBS, and spun at 1000 rpm for 10 minutes. The supernatant was removed and the cell pellet was resuspended in 0.1% BSA media. Cells were counted with a hemocytometer and seeded onto LB and FN surfaces at a density of 497 cells/mm^2. Surfaces were incubated with cells in 0.1% BSA media at 37° C., 5% CO2, for 1, 4, 12, 24, 48, and 72 hours. Cell adhesion was quantified using the CyQuant Cell Proliferation Assay Kit, with a dye that binds to cellular nucleic acids, following the manufacturer's protocol (Molecular Probes). A calibration standard curve was created for each experiment. The plates were read on a SpectraMAX GeminiXS (Molecular Devices).
# integrin α5β1 = molecular target: T1, integrin α5β1 (Homo sapiens, UniProt P05556+P08648); assay: Adhesion blocking with anti-integrin α5β1 antibody (JBS5); type: cell-based; details: 1 hour
# T1 construct: endogenous in cells; host or cells: HUVEC (human umbilical vein endothelial cells)
# T1 sequence (P08648 42-894 limits assumed): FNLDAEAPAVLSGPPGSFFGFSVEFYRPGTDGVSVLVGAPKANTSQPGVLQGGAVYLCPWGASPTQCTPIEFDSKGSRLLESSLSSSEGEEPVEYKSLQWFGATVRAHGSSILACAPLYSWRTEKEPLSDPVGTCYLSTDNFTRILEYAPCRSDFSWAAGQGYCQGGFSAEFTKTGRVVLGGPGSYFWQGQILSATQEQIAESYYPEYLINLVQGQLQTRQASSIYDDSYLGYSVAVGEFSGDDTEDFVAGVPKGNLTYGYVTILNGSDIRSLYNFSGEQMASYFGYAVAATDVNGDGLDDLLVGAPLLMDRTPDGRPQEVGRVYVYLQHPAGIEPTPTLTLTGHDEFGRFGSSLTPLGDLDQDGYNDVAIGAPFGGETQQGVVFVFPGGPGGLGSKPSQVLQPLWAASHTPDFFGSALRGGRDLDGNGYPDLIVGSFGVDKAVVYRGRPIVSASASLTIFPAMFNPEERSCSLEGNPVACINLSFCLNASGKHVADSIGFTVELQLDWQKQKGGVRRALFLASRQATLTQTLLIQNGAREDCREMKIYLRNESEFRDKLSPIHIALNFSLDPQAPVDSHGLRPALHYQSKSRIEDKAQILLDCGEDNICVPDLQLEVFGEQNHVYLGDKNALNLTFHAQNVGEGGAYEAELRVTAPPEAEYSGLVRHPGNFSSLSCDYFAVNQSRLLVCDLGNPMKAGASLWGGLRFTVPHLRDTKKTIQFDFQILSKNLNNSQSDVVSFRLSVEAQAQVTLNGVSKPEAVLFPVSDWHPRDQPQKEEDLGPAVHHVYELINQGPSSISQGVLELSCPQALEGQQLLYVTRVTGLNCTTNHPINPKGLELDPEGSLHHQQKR
# T1 sequence (P08648 895-1049 partner limits assumed): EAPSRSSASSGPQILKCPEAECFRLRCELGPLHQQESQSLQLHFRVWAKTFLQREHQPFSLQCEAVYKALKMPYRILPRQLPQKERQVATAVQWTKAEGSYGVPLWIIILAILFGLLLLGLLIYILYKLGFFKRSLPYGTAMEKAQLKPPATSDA
# T1 sequence (P05556 21-798): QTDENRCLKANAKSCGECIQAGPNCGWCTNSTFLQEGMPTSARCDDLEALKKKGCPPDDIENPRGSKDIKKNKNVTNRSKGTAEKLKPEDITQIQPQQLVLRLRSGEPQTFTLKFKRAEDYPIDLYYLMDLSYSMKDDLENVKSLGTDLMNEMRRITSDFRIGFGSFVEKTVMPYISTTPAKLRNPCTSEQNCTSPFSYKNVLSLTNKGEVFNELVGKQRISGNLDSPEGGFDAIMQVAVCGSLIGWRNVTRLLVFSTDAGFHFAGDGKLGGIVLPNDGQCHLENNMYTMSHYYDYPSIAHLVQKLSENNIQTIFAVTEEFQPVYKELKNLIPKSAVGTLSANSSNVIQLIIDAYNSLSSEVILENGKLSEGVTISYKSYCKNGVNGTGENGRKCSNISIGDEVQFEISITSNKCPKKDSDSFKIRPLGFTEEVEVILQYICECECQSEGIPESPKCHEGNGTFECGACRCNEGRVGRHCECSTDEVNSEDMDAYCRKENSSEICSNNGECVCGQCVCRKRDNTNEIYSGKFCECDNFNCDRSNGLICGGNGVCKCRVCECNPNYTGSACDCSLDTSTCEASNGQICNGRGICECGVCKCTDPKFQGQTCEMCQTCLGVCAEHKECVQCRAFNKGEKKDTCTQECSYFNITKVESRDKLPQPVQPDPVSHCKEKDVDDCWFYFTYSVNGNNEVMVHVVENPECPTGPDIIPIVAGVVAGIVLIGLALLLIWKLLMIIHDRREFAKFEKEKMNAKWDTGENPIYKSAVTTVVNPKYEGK
# Description: Adhesion blocking experiments: Blocking experiments were done using mouse anti-human integrin […] (P1D6), β1 (P5D2), α5β1 (JBS5), and αvβ3 (LM609) monoclonal antibodies (Chemicon Int.). All surfaces were transferred to 24- or 12-well plates and pre-incubated in 0.1% BSA media as described above. HUVECs were prepared and counted as described in the cell adhesion protocol. Cells were blocked by mixing the cell suspension with the appropriate antibody in 0.1% BSA media, and incubating for 30 minutes at 37° C., 5% CO2 with constant agitation. Blocked cells were then released onto LB and FN surfaces and allowed to adhere for 1 hour at 37° C., 5% CO2. For all blocking experiments, cells were seeded at 249 cells/mm^2 (lower seeding density was used here to reduce the amount of antibodies needed to block cell adhesion) and a final antibody concentration in each well was 20 μg/ml. Following incubation, surfaces were washed, and adhered cells were quantified as described in the cell adhesion protocol.
# HUVECs [2] = assay: Actin cytoskeleton and focal adhesion staining; type: cell-based, human; details: 1-72 hours
# Description: Actin cytoskeleton and focal adhesion staining: Surface transferring, cell seeding, incubation, and fixing were done as described above. Staining for the actin cytoskeleton, focal adhesions, and nucleus of attached cells was done using the Actin Cytoskeleton and Focal Adhesion Staining Kit following the manufacturer's protocol (Chemicon Int.) and using 1:350 dilution for anti-vinculin antibody, 1:200 for the secondary antibody, approximately 1:1000 dilution (equivalent to 1 unit/surface) for TRITC-conjugated phalloidin and 1:1000 for DAPI. After washing, surfaces were mounted onto glass slides and stored at 4° C. protected from light. A confocal microscope (BIORAD Multiphoton Confocal 1024) was used for imaging.
# HUVECs [3] = assay: Extracellular fibronectin production by HUVECs (Example 1); type: cell-based, human
# Description: Cell spreading and fibronectin production experiments: Surface transferring, cell seeding, and incubation were done in the same manner as in the adhesion experiment, with a cell density of 497 cells/mm^2, and incubation times of 1, 12, 24, 48, and 72 hour. At the end of each incubation, the surfaces were removed, washed with […] of PBS, and fixed in 1 ml of 4% paraformaldehyde (Sigma) in PBS for 15 minutes at 37° C., 5% CO2. After washing with PBS, surfaces were first labeled for secreted fibronectin: surfaces were subjected to a blocking solution (0.1% BSA in PBS) for 30 minutes, incubated for 1 hour with a primary antibody specific for secreted fibronectin (mouse anti-human fibronectin (P1H11) monoclonal antibody (Chemicon Int.) at a 1:500 dilution in blocking solution, and then for 45 minutes with a secondary antibody (IgG fluorescein (FITC) conjugated antibody; Chemicon Int.) at a 1:200 dilution in PBS. As a final step, cell membranes and nuclei were stained using the Image-iT™ LIVE Plasma Membrane and Nuclear Labeling Kit following the manufacturer's protocol for labeling fixed cells (Molecular Probes). After final washing, surfaces were mounted onto glass slides and stored at 4° C. protected from light. An inverted fluorescent microscope (Nikon Eclipse TE200 with Pixcell II LCM) was used for imaging. Fibronectin production was assessed visually, by comparing 10-20 fluorescence images from two samples for each substrate (two independent experiments performed at different days). Cell spreading was quantified from two samples per substrate (two independent experiments performed at different days) by measuring cell area with the NIH imaging software.
# HUVECs [4] = assay: Fibronectin production staining (Example 2); type: cell-based, human; details: 12 hours
# Description: Fibronectin production staining: Surface preparation, transfer, and cellular work were all done as described in the previous methods. Only surfaces incubated with cells for 12 hours were stained. The staining protocol, involving a primary antibody for secreted fibronectin (Chemicon), a FITC-conjugated secondary antibody (Chemicon), and the Image-iT LIVE plasma membrane and nuclear labeling kit (Molecular Probes), was done as previously described in Example 1. A single photon confocal microscope (Olympus FluoView FV1000) was used for imaging. Two slides per substrate were prepared each during 2 separate experiments and each slide was imaged 2-4 times. The final images chosen were all taken from one experiment for consistency, but were representative of the images obtained from both experiments.
substance,measurement,setting,value
(C16)2-Glu-C2-KSSPHSRNSGSGSGSGSGRGDSP ({(C16)2-Glu-C2}-KSSPHSRNSGSGSGSGSGRGDSP; not fully specified; reading uncertain) [PR_b],HUVEC adhesion compared to FN,HUVECs [1]; 1-24 hours,higher adhesion than FN
same,Ability of substrate to sustain HUVEC adhesion over time,HUVECs [1]; 1-72 hours,effectively adhered
same,HUVEC adhesion compared to the other peptide surfaces,HUVECs [1]; 1-72 hours,most promising sequence; also recorded: outperformed all other peptide substrates; also recorded: outperforms all other peptide surfaces
same,HUVEC adhesion compared to FN,HUVECs [1]; 48-72 hours,similar; also recorded: equivalent
same,reduction in cell adhesion compared to adhesion of non-blocked cells,"integrin α5β1; anti-α5β1 antibody 20 μg/ml, HUVECs 249 cells/mm^2",77.55±1.50%
same,Integrin mediating HUVEC adhesion to the surface,integrin α5β1; antibody blocking,α5β1-mediated; also recorded: specific for α5β1 integrins
same,Actin stress fibers and focal contacts,HUVECs [2],displayed actin stress fibers and focal contacts
same,Cytoskeletal organization and focal adhesion compared to FN,HUVECs [2],better-developed cytoskeletal structure compared to FN; also recorded: stronger cytoskeletal organization and focal adhesion formation
same,Fibronectin secretion by adhered HUVECs,HUVECs [3]; after 48 hours,fully covered with secreted fibronectin
same,"Amount of fibronectin secretion, PR_b versus FN",HUVECs [3]; all times examined,comparable for both substrates
same,Fibronectin (ECM) production by adhered HUVECs,HUVECs [4],good fibronectin production
